Experimental data published in patent US20220402950A1, “SUBSTITUTED BENZIMIDAZOLES AS PAD4 INHIBITORS” (BRISTOL-MYERS SQUIBB COMPANY, priority 2018, published 2022).
Like-named read-outs stand apart in the source and are kept apart here.

Biological target: human PAD4 (hPAD4) (Homo sapiens, UniProt Q9UM07)
Assay: RFMS Human PAD4 Functional Assay
Format: biochemical
Details: 5 nM hPAD4, 250 μM BAEE
Procedure, shortened: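 RapidFire ESI-MS quantification, normalised to a modified-citrulline internal standard, after phenyl glyoxal (final 4 mM) derivatisation of the TCA-quenched reaction. The enzyme (10 nM) sat 30 min with compound (up to 50 μM final) before 500 μM BAEE (as added) started a 90 min, 37 °C reaction. Buffer: HEPES pH 7.5, 50 μM calcium, 5 μM TPEN.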

[1] = hPAD4 RFMS IC50, human PAD4, rapid-fire mass spectrum (RFMS) assay
[2] = human PAD4, rapid-fire mass spectrum (RFMS) assay, read-out: hPAD4 RFMS IC50

Chain of human PAD4 (hPAD4) (Q9UM07 whole entry): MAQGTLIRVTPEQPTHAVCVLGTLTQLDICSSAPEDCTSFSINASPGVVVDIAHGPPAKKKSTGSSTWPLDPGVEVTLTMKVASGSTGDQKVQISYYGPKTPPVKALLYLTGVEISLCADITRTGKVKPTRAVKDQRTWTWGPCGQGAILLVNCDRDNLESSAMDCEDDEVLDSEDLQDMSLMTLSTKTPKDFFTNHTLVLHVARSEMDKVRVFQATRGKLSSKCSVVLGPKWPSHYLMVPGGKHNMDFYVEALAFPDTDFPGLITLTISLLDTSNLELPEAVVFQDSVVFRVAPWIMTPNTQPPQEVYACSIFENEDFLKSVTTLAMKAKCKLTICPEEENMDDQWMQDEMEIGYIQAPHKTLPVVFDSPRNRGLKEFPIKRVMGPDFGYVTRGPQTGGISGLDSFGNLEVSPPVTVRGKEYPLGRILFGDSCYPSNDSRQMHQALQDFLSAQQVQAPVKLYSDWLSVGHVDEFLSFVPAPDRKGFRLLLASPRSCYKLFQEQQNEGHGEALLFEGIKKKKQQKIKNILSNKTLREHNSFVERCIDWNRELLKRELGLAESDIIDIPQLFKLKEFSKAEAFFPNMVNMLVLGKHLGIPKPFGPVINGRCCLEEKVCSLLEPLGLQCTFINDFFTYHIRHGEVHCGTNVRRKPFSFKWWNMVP

Structure (SMILES)	IC50 [1] [nM]	IC50 [2] [nM]
COc1cc(C(=O)N2C[C@H]3CC[C@@H]2[C@@H]3N)cc2nc(-c3cc4cccc(C5CCCN(C(N)=O)C5)c4n3CC3CC3)n(C)c12 (stereo partly drawn) [Example 39, 3-(2-{5-[(1R,4R,7R)-7-amino-2-azabicyclo[2.2.1]heptane-2-carbonyl]-7-methoxy-1-methyl-1H-1,3-benzodiazol-2-yl}-1-(cyclopropylmethyl)-1H-indol-7-yl)piperidine-1-carboxamide]	51	–
COC(=O)N1CC(c2cccc3cc(-c4nc5cc(C(=O)N6C[C@H]7CC[C@@H]6[C@@H]7N)cc(OC)c5n4C)n(CC4CC4)c23)C1 [Example 40, Methyl 3-(2-(5-((1R,4R,7R)-7-amino-2-azabicyclo[2.2.1]heptane-2-carbonyl)-7-methoxy-1-methyl-1H-benzo[d]imidazol-2-yl)-1-(cyclopropylmethyl)-1H-indol-7-yl)azetidine-1-carboxylate]	–	21
COc1cc(C(=O)N2C[C@H]3CC[C@@H]2[C@@H]3N)cc2nc(-c3cc4cccc(CCCC(=O)O)c4n3CC3CC3)n(C)c12 [Example 60, 4-(2-{5-[(1R,4R,7R)-7-amino-2-azabicyclo[2.2.1]heptane-2-carbonyl]-7-methoxy-1-methyl-1H-1,3-benzodiazol-2-yl}-1-(cyclopropylmethyl)-1H-indol-7-yl)butanoic Acid]	–	108
COc1cc(C(=O)N2C[C@H]3CC[C@@H]2[C@@H]3N)cc2nc(-c3cc4cccc(C5CC6(CNC6)C5)c4n3CC3CC3)n(C)c12 [Example 61, (1R,4R,7R)-2-[2-(7-{2-azaspiro[3.3]heptan-6-yl}-1-(cyclopropylmethyl)-1H-indol-2-yl)-7-methoxy-1-methyl-1H-1,3-benzodiazole-5-carbonyl]-2-azabicyclo[2.2.1]heptan-7-amine]	–	34
COc1cc(C(=O)N2C[C@H]3CC[C@@H]2[C@@H]3N)cc2nc(-c3cc4cccc(C5CC6(C5)CN(C(C)=O)C6)c4n3CC3CC3)n(C)c12 [Example 62, 1-[6-(2-{5-[(1R,4R,7R)-7-amino-2-azabicyclo[2.2.1]heptane-2-carbonyl]-7-methoxy-1-methyl-1H-1,3-benzodiazol-2-yl}-1-(cyclopropylmethyl)-1H-indol-7-yl)-2-azaspiro[3.3]heptan-2-yl]ethan-1-one]	–	110
COc1cc(C(=O)N2C[C@H]3CC[C@@H]2[C@@H]3N)cc2nc(-c3cc4cccc(C5CN(C(N)=O)C5)c4n3CC3CC3)n(C)c12 [Example 66, 3-(2-{5-[(1R,4R,7R)-7-amino-2-azabicyclo[2.2.1]heptane-2-carbonyl]-7-methoxy-1-methyl-1H-1,3-benzodiazol-2-yl}-1-(cyclopropylmethyl)-1H-indol-7-yl)azetidine-1-carboxamide]	30	–
COc1cc(C(=O)N2C[C@H]3CC[C@@H]2[C@@H]3N)cc2nc(-c3cc4cccc(C5CN(C(=O)C(C)(C)O)C5)c4n3CC3CC3)n(C)c12 [Example 69, 1-[3-(2-{5-[(1R,4R,7R)-7-amino-2-azabicyclo[2.2.1]heptane-2-carbonyl]-7-methoxy-1-methyl-1H-1,3-benzodiazol-2-yl}-1-(cyclopropylmethyl)-1H-indol-7-yl)azetidin-1-yl]-2-hydroxy-2-methylpropan-1-one]	50	–
COc1cc(C(=O)N2C[C@H]3CC[C@@H]2[C@@H]3N)cc2nc(-c3cc4cccc(C5CN(C(=O)Nc6ccccc6)C5)c4n3CC3CC3)n(C)c12 [Example 70, 3-(2-{5-[(1R,4R,7R)-7-amino-2-azabicyclo[2.2.1]heptane-2-carbonyl]-7-methoxy-1-methyl-1H-1,3-benzodiazol-2-yl}-1-(cyclopropylmethyl)-1H-indol-7-yl)-N-phenylazetidine-1-carboxamide]	15	–
COc1cc(C(=O)N2C[C@H]3CC[C@@H]2[C@@H]3N)cc2nc(-c3cc4cccc(C5CN(C(=O)Cc6ccncc6)C5)c4n3CC3CC3)n(C)c12 [Example 73, 1-[3-(2-{5-[(1R,4R,7R)-7-amino-2-azabicyclo[2.2.1]heptane-2-carbonyl]-7-methoxy-1-methyl-1H-1,3-benzodiazol-2-yl}-1-(cyclopropylmethyl)-1H-indol-7-yl)azetidin-1-yl]-2-(pyridin-4-yl)ethan-1-one]	5	–

Further lines, results first:

IC50 [1] [nM]	IC50 [2] [nM]	Structure (SMILES)
–	53	COc1cc(C(=O)N2C[C@H](N)C[C@@H](F)C2)cc2nc(-c3cc4cccc(C5CN(C(C)=O)C5)c4n3CC3CC3)n(C)c12 [Example 41, 1-[3-(2-{5-[(3R,5R)-3-amino-5-fluoropiperidine-1-carbonyl]-7-methoxy-1-methyl-1H-1,3-benzodiazol-2-yl}-1-(cyclopropylmethyl)-1H-indol-7-yl)azetidin-1-yl]ethan-1-one]
–	141	COc1cc(C(=O)N2C[C@H](N)CC[C@@H]2C)cc2nc(-c3cc4cccc(C5CN(C(C)=O)C5)c4n3CC3CC3)n(C)c12 [Example 42, 1-(3-(2-(5-((2S,5R)-5-amino-2-methylpiperidine-1-carbonyl)-7-methoxy-1-methyl-1H-benzo[d]imidazol-2-yl)-1-(cyclopropylmethyl)-1H-indol-7-yl)azetidin-1-yl)ethan-1-one]
–	10	COc1cc(C(=O)N2C[C@H]3CC[C@@H]2[C@@H]3N)cc2nc(-c3cc4cccc(C5CC(NC(C)=O)C5)c4n3CC3CC3)n(C)c12 (stereo partly drawn) [Example 57, N-[3-(2-{5-[(1R,4R,7R)-7-amino-2-azabicyclo[2.2.1]heptane-2-carbonyl]-7-methoxy-1-methyl-1H-1,3-benzodiazol-2-yl}-1-(cyclopropylmethyl)-1H-indol-7-yl)cyclobutyl]acetamide]
–	62	COc1cc(C(=O)N2C[C@H]3CC[C@@H]2[C@@H]3N)cc2nc(-c3cc4cccc(CC5CN(C(C)=O)C5)c4n3CC3CC3)n(C)c12 [Example 63, 1-{3-[(2-{5-[(1R,4R,7R)-7-amino-2-azabicyclo[2.2.1]heptane-2-carbonyl]-7-methoxy-1-methyl-1H-1,3-benzodiazol-2-yl}-1-(cyclopropylmethyl)-H-indol-7-yl)methyl]azetidin-1-yl}ethan-1-one]
–	31	COc1cc(C(=O)N2C[C@H]3CC[C@@H]2[C@@H]3N)cc2nc(-c3cc4cccc(C5CN(S(C)(=O)=O)C5)c4n3CC3CC3)n(C)c12 [Example 64, (1R,4R,7R)-2-{2-[1-(cyclopropylmethyl)-7-(1-methanesulfonylazetidin-3-yl)-1H-indol-2-yl]-7-methoxy-1-methyl-1H-1,3-benzodiazole-5-carbonyl}-2-azabicyclo[2.2.1]heptan-7-amine]
–	24	COc1cc(C(=O)N2C[C@H]3CC[C@@H]2[C@@H]3N)cc2nc(-c3cc4cccc(C5CN(C(=O)CN)C5)c4n3CC3CC3)n(C)c12 [Example 65, 2-amino-1-[3-(2-{5-[(1R,4R,7R)-7-amino-2-azabicyclo[2.2.1]heptane-2-carbonyl]-7-methoxy-1-methyl-1H-1,3-benzodiazol-2-yl}-1-(cyclopropylmethyl)-1H-indol-7-yl)azetidin-1-yl]ethan-1-one]
189	–	COc1cc(C(=O)N2C[C@H]3CC[C@@H]2[C@@H]3N)cc2nc(-c3cc4cccc(C5CN(C(=O)C(C)(C)C)C5)c4n3CC3CC3)n(C)c12 [Example 67, 1-[3-(2-{5-[(1R,4R,7R)-7-amino-2-azabicyclo[2.2.1]heptane-2-carbonyl]-7-methoxy-1-methyl-1H-1,3-benzodiazol-2-yl}-1-(cyclopropylmethyl)-1H-indol-7-yl)azetidin-1-yl]-2,2-dimethylpropan-1-one]
170	–	COc1cc(C(=O)N2C[C@H]3CC[C@@H]2[C@@H]3N)cc2nc(-c3cc4cccc(C5CN(C(=O)CCC(=O)O)C5)c4n3CC3CC3)n(C)c12 [Example 68, 4-[3-(2-{5-[(1R,4R,7R)-7-amino-2-azabicyclo[2.2.1]heptane-2-carbonyl]-7-methoxy-1-methyl-1H-1,3-benzodiazol-2-yl}-1-(cyclopropylmethyl)-1H-indol-7-yl)azetidin-1-yl]-4-oxobutanoic acid]
16	–	COCC(=O)N1CC(c2cccc3cc(-c4nc5cc(C(=O)N6C[C@H]7CC[C@@H]6[C@@H]7N)cc(OC)c5n4C)n(CC4CC4)c23)C1 [Example 71, 1-[3-(2-{5-[(1R,4R,7R)-7-amino-2-azabicyclo[2.2.1]heptane-2-carbonyl]-7-methoxy-1-methyl-1H-1,3-benzodiazol-2-yl}-1-(cyclopropylmethyl)-1H-indol-7-yl)azetidin-1-yl]-2-methoxyethan-1-one]
10	–	COc1cc(C(=O)N2C[C@H]3CC[C@@H]2[C@@H]3N)cc2nc(-c3cc4cccc(C5CN(C(=O)Cc6ccccc6)C5)c4n3CC3CC3)n(C)c12 [Example 72, 1-[3-(2-{5-[(1R,4R,7R)-7-amino-2-azabicyclo[2.2.1]heptane-2-carbonyl]-7-methoxy-1-methyl-1H-1,3-benzodiazol-2-yl}-1-(cyclopropylmethyl)-1H-indol-7-yl)azetidin-1-yl]-2-phenylethan-1-one]
71	–	COc1cc(C(=O)N2C[C@H]3CC[C@@H]2[C@@H]3N)cc2nc(-c3cc4cccc(C5CN(C(=O)c6ccccc6)C5)c4n3CC3CC3)n(C)c12 [Example 74, (1R,4R,7R)-2-{2-[7-(1-benzoylazetidin-3-yl)-1-(cyclopropylmethyl)-1H-indol-2-yl]-7-methoxy-1-methyl-1H-1,3-benzodiazole-5-carbonyl}-2-azabicyclo[2.2.1]heptan-7-amine]
34	–	COc1cc(C(=O)N2C[C@H]3CC[C@@H]2[C@@H]3N)cc2nc(-c3cc4cccc(C5CN(C(=O)Cc6ccccn6)C5)c4n3CC3CC3)n(C)c12 [Example 75, 1-[3-(2-{5-[(1R,4R,7R)-7-amino-2-azabicyclo[2.2.1]heptane-2-carbonyl]-7-methoxy-1-methyl-1H-1,3-benzodiazol-2-yl}-1-(cyclopropylmethyl)-1H-indol-7-yl)azetidin-1-yl]-1-(pyridin-2-yl)ethan-1-one]
